{
  "source": "patent US5281603A",
  "about": "“Angiotensin II receptor blocking 2,3,6 substituted quinazolinones” (American Cyanamid Company, priority 1993, dated 1994)",
  "test_system": "Angiotensin II vasopressor response",
  "experiment": "AII challenge: antagonism of angiotensin II vasopressor response in conscious spontaneously hypertensive rats",
  "format": "in vivo, rat (Male Okamoto-Aoki SHR)",
  "conditions": "10 mg/kg I.V.; for % Inhibition / Average Change: SHR n=2; for Response After AII / Change / Control Before AII: individual SHR",
  "description": "By administering a compound of this invention to a rat, and then challenging with angiotensin II, a blockage of the vasopressor response is realized.\nConscious Male Okamoto-Aoki SHR, 16-20 weeks old, weighing approximately 330 g are purchased from Charles River Labs (Wilmington, Mass.). Conscious rats are restrained in a supine position with elastic tape. The area at the base of the tail is locally anesthetized by subcutaneous infiltration with 2% procaine. The ventral caudal artery and vein are isolated, and a cannula made of polyethylene (PE) 10-20 tubing (fused together by heat) is passed into the lower abdominal aorta and vena cava, respectively. The cannula is secured, heparinized (1,000 I.U./ml), sealed and the wound is closed. The animals are placed in plastic restraining cages in an upright position. The cannula is attached to a Statham P23Db pressure transducer, and pulsatile blood pressure is recorded to 10-15 minutes with a Gould Brush recorder. (Chan et al., (Drug Development Res., 18:75-94, 1989).\nAngiotensin II (human sequence, Sigma Chem. Co., St. […] Then a test compound, vehicle or a known angiotensin II antagonist is administered i.v., i.p. or orally to each set of rats. The two doses of angiotensin II are given to each rat again at 30, 60, 90, 120, 180, 240 and 300 minutes post dosing the compound or vehicle. The vasopressor response of angiotensin II is measured for the increase in systolic blood pressure in mmHg. The percentage of antagonism or blockade of the vasopressor response of angiotensin II by a compound is calculated using the vasopressor response (increase in systolic blood pressure) of angiotensin II of each rat predosing the compound as 100%. A compound is considered active if at 30 mg/kg i.v. it antagonized at least 50% of the response.",
  "key": {"[1]": {"conditions": "AII 0.05 mcg/kg IV, 30 min post dose"}, "[2]": {"conditions": "AII 0.05 mcg/kg IV, 60 min post dose"}, "[3]": {"conditions": "AII 0.05 mcg/kg IV, 90 min post dose"}, "[4]": {"conditions": "AII 0.05 mcg/kg IV, 120 min post dose"}, "[5]": {"conditions": "AII 0.05 mcg/kg IV, 180 min post dose"}, "[6]": {"conditions": "AII 0.05 mcg/kg IV, 240 min post dose"}, "[7]": {"conditions": "AII 0.05 mcg/kg IV, 300 min post dose"}, "[8]": {"conditions": "AII 0.1 mcg/kg IV, 30 min post dose"}, "[9]": {"conditions": "AII 0.1 mcg/kg IV, 60 min post dose"}, "[10]": {"conditions": "AII 0.1 mcg/kg IV, 90 min post dose"}, "[11]": {"conditions": "AII 0.1 mcg/kg IV, 120 min post dose"}, "[12]": {"conditions": "AII 0.1 mcg/kg IV, 180 min post dose"}, "[13]": {"conditions": "AII 0.1 mcg/kg IV, 240 min post dose"}, "[14]": {"conditions": "AII 0.1 mcg/kg IV, 300 min post dose"}, "[15]": {"conditions": "AII 0.05 mcg/kg IV, 30 min post dose, 10 mg/kg"}, "[16]": {"conditions": "AII 0.05 mcg/kg IV, 60 min post dose, 10 mg/kg"}, "[17]": {"conditions": "AII 0.05 mcg/kg IV, 90 min post dose, 10 mg/kg"}, "[18]": {"conditions": "AII 0.05 mcg/kg IV, 120 min post dose, 10 mg/kg"}, "[19]": {"conditions": "AII 0.05 mcg/kg IV, 180 min post dose, 10 mg/kg"}, "[20]": {"conditions": "AII 0.05 mcg/kg IV, 240 min post dose, 10 mg/kg"}, "[21]": {"conditions": "AII 0.05 mcg/kg IV, 300 min post dose, 10 mg/kg"}, "[22]": {"conditions": "AII 0.1 mcg/kg IV, 30 min post dose, 10 mg/kg"}, "[23]": {"conditions": "AII 0.1 mcg/kg IV, 60 min post dose, 10 mg/kg"}, "[24]": {"conditions": "AII 0.1 mcg/kg IV, 90 min post dose, 10 mg/kg"}, "[25]": {"conditions": "AII 0.1 mcg/kg IV, 120 min post dose, 10 mg/kg"}, "[26]": {"conditions": "AII 0.1 mcg/kg IV, 180 min post dose, 10 mg/kg"}, "[27]": {"conditions": "AII 0.1 mcg/kg IV, 240 min post dose, 10 mg/kg"}, "[28]": {"conditions": "AII 0.1 mcg/kg IV, 300 min post dose, 10 mg/kg"}},
  "note": "Values joined by “and” are separate entries in the source; they are usually repeats but may differ in a detail not shown here. Equal values may be shown once.",
  "data": [
    {"molecule": "CCCCc1nc2ccc(C3=NN[C@H]4C(=O)N(C)C(=O)[C@@H]34)cc2c(=O)n1Cc1ccc(-c2ccccc2-c2nnn[nH]2)cc1", "note": "(relative stereo) [Example 7]", "values": [
      {"measurement": "% Inhibition", "setting": "[1]", "value": 57, "unit": "%"},
      {"measurement": "Average Change", "setting": "[1]", "value": 20, "unit": "mmHg"},
      {"measurement": "% Inhibition", "setting": "[2]", "value": 57, "unit": "%"},
      {"measurement": "Average Change", "setting": "[2]", "value": 20, "unit": "mmHg"},
      {"measurement": "% Inhibition", "setting": "[3]", "value": 57, "unit": "%"},
      {"measurement": "Average Change", "setting": "[3]", "value": 20, "unit": "mmHg"},
      {"measurement": "% Inhibition", "setting": "[4]", "value": 62, "unit": "%"},
      {"measurement": "Average Change", "setting": "[4]", "value": 17.5, "unit": "mmHg"},
      {"measurement": "% Inhibition", "setting": "[5]", "value": 67, "unit": "%"},
      {"measurement": "Average Change", "setting": "[5]", "value": 15, "unit": "mmHg"},
      {"measurement": "% Inhibition", "setting": "[6]", "value": 62, "unit": "%"},
      {"measurement": "Average Change", "setting": "[6]", "value": 17.5, "unit": "mmHg"},
      {"measurement": "% Inhibition", "setting": "[7]", "value": 24, "unit": "%"},
      {"measurement": "Average Change", "setting": "[7]", "value": 35, "unit": "mmHg"},
      {"measurement": "% Inhibition", "setting": "[8]", "value": 50, "unit": "%"},
      {"measurement": "Average Change", "setting": "[8]", "value": 27.5, "unit": "mmHg"},
      {"measurement": "% Inhibition", "setting": "[9]", "value": 58, "unit": "%"},
      {"measurement": "Average Change", "setting": "[9]", "value": 23, "unit": "mmHg"},
      {"measurement": "% Inhibition", "setting": "[10]", "value": 59, "unit": "%"},
      {"measurement": "Average Change", "setting": "[10]", "value": 22.5, "unit": "mmHg"},
      {"measurement": "% Inhibition", "setting": "[11]", "value": 67, "unit": "%"},
      {"measurement": "Average Change", "setting": "[11]", "value": 18, "unit": "mmHg"},
      {"measurement": "% Inhibition", "setting": "[12]", "value": 50, "unit": "%"},
      {"measurement": "Average Change", "setting": "[12]", "value": 27.5, "unit": "mmHg"},
      {"measurement": "% Inhibition", "setting": "[13]", "value": 55, "unit": "%"},
      {"measurement": "Average Change", "setting": "[13]", "value": 25, "unit": "mmHg"},
      {"measurement": "% Inhibition", "setting": "[14]", "value": 54, "unit": "%"},
      {"measurement": "Average Change", "setting": "[14]", "value": 25.5, "unit": "mmHg"},
      {"measurement": "Response After AII", "setting": "[1]", "value": 240, "unit": "mmHg"},
      {"measurement": "Change", "setting": "[15]", "value": "15 mmHg and 25 mmHg"},
      {"measurement": "Control Before AII", "setting": "[15]", "value": "150 mmHg and 215 mmHg"},
      {"measurement": "Response After AII", "setting": "[15]", "value": 165, "unit": "mmHg"},
      {"measurement": "Change", "setting": "[16]", "value": "15 mmHg and 25 mmHg"},
      {"measurement": "Control Before AII", "setting": "[16]", "value": "145 mmHg and 215 mmHg"},
      {"measurement": "Response After AII", "setting": "[16]", "value": "160 mmHg and 240 mmHg"},
      {"measurement": "Response After AII", "setting": "[3]", "value": 230, "unit": "mmHg"},
      {"measurement": "Change", "setting": "[17]", "value": "40 mmHg and 0 mmHg"},
      {"measurement": "Control Before AII", "setting": "[17]", "value": "135 mmHg and 230 mmHg"},
      {"measurement": "Response After AII", "setting": "[17]", "value": 175, "unit": "mmHg"},
      {"measurement": "Response After AII", "setting": "[4]", "value": 160, "unit": "mmHg"},
      {"measurement": "Change", "setting": "[18]", "value": "20 mmHg and 15 mmHg"},
      {"measurement": "Control Before AII", "setting": "[18]", "value": "140 mmHg and 200 mmHg"},
      {"measurement": "Response After AII", "setting": "[18]", "value": 215, "unit": "mmHg"},
      {"measurement": "Change", "setting": "[19]", "value": "25 mmHg and 5 mmHg"},
      {"measurement": "Control Before AII", "setting": "[19]", "value": "140 mmHg and 205 mmHg"},
      {"measurement": "Response After AII", "setting": "[19]", "value": "165 mmHg and 210 mmHg"},
      {"measurement": "Change", "setting": "[20]", "value": "25 mmHg and 10 mmHg"},
      {"measurement": "Control Before AII", "setting": "[20]", "value": "135 mmHg and 190 mmHg"},
      {"measurement": "Response After AII", "setting": "[20]", "value": "160 mmHg and 200 mmHg"},
      {"measurement": "Change", "setting": "[7]", "value": 35, "unit": "mmHg"},
      {"measurement": "Control Before AII", "setting": "[21]", "value": "140 mmHg and 190 mmHg"},
      {"measurement": "Response After AII", "setting": "[21]", "value": "175 mmHg and 225 mmHg"},
      {"measurement": "Change", "setting": "[22]", "value": "20 mmHg and 35 mmHg"},
      {"measurement": "Control Before AII", "setting": "[22]", "value": "140 mmHg and 215 mmHg"},
      {"measurement": "Response After AII", "setting": "[22]", "value": "160 mmHg and 250 mmHg"},
      {"measurement": "Change", "setting": "[23]", "value": "15 mmHg and 31 mmHg"},
      {"measurement": "Control Before AII", "setting": "[23]", "value": "145 mmHg and 224 mmHg"},
      {"measurement": "Response After AII", "setting": "[23]", "value": "160 mmHg and 255 mmHg"},
      {"measurement": "Change", "setting": "[24]", "value": "25 mmHg and 20 mmHg"},
      {"measurement": "Control Before AII", "setting": "[24]", "value": "140 mmHg and 215 mmHg"},
      {"measurement": "Response After AII", "setting": "[24]", "value": "165 mmHg and 235 mmHg"},
      {"measurement": "Response After AII", "setting": "[11]", "value": 160, "unit": "mmHg"},
      {"measurement": "Change", "setting": "[25]", "value": "25 mmHg and 11 mmHg"},
      {"measurement": "Control Before AII", "setting": "[25]", "value": "135 mmHg and 214 mmHg"},
      {"measurement": "Response After AII", "setting": "[25]", "value": 225, "unit": "mmHg"},
      {"measurement": "Change", "setting": "[26]", "value": "35 mmHg and 20 mmHg"},
      {"measurement": "Control Before AII", "setting": "[26]", "value": "140 mmHg and 195 mmHg"},
      {"measurement": "Response After AII", "setting": "[26]", "value": "175 mmHg and 215 mmHg"},
      {"measurement": "Change", "setting": "[27]", "value": "35 mmHg and 15 mmHg"},
      {"measurement": "Control Before AII", "setting": "[27]", "value": "140 mmHg and 190 mmHg"},
      {"measurement": "Response After AII", "setting": "[27]", "value": "175 mmHg and 205 mmHg"},
      {"measurement": "Change", "setting": "[28]", "value": "40 mmHg and 11 mmHg"},
      {"measurement": "Control Before AII", "setting": "[28]", "value": "140 mmHg and 205 mmHg"},
      {"measurement": "Response After AII", "setting": "[28]", "value": "180 mmHg and 216 mmHg"}
    ]}
  ]
}
